Laboratory results from patent US12595253B2, “Benzamides of pyrazolylamino-pyrimidinyl derivatives, and compositions and methods thereof” (LYNK PHARMACEUTICALS CO. LTD., priority 2019, dated 2026).

Key:
JAK1 = target: T1, JAK1 (Homo sapiens, UniProt P23458); assay: JAK1 microfluidic kinase assay (Caliper EZ Reader II, FAM labeled peptide substrate); type: biochemical
T1 construct: purchased Carna Biosciences
Procedure, shortened: (§1)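 Microfluidic mobility-shift kinase assay in 50 mM HEPES, 0.01% Brij35, 10 mM MgCl2, 2 mM DTT. IC50 values come from percent-inhibition curves normalised to uninhibited and enzyme-free controls.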

JAK2 = target: T2, JAK2 (Homo sapiens, UniProt O60674); assay: JAK2 microfluidic kinase assay (Caliper EZ Reader II, FAM labeled peptide substrate); type: biochemical
T2 construct: purchased Carna Biosciences
Procedure, shortened: as §1

JAK2V617F = target: T3, JAK2V617F (Homo sapiens, UniProt O60674, V617F); assay: JAK2V617F microfluidic kinase assay (Caliper EZ Reader II, FAM labeled peptide substrate); type: biochemical; conditions: JAK2V617F 2.5 nM, 1 mM ATP
T3 construct: purchased Carna Biosciences
Procedure, shortened: as §1

TYK2 = target: T4, TYK2 (Homo sapiens, UniProt P29597); assay: TYK2 microfluidic kinase assay (Caliper EZ Reader II, FAM labeled peptide substrate); type: biochemical
T4 construct: purchased Carna Biosciences
Procedure, shortened: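 First, serially diluted compounds (top 5 μM, 3-fold steps, 1% DMSO final) sit with enzyme 10 min at ambient temperature. Then the kinase reaction runs in HEPES buffer with 10 mM MgCl2 for 120, 20, 30 or 10 min (JAK1, JAK2, JAK2V617F, TYK2). Finally 50 mM EDTA quenches it.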

CYP1A2 = target: T5, CYP1A2 (Homo sapiens, UniProt P05177); assay: CYPs inhibition in pooled human liver microsomes, probe substrate Phenacetin; type: in vitro ADME
T5 construct: 0.2 mg/mL human liver microsomes was pre-incubated in 180 μL reaction mixture; from tissue; host or cells: pooled human liver microsomes
T5 sequence (P05177 1-516): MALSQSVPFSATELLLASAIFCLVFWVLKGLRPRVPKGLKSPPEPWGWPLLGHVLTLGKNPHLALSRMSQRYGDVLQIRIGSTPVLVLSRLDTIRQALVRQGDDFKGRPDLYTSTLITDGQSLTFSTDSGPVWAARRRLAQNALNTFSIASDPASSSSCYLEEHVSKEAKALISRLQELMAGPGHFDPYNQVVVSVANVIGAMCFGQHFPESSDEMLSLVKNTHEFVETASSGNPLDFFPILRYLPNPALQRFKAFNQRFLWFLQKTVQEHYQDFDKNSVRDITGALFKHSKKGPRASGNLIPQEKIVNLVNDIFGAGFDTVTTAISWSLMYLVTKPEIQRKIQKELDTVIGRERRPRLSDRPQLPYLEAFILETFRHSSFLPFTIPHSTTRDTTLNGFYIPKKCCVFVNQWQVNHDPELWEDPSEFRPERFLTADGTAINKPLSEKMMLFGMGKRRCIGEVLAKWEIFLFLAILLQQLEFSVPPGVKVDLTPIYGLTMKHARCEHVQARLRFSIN
Procedure: (§2) The inhibitory potential of test articles in pooled human liver microsomes was evaluated by the method using a cocktail of CYP substrates. […] For the negative control well, the test articles was replaced with 20 μL reaction buffer. After 10 min of pre-incubation at 37° C., 20 μL 10 mM NADPH cofactor was added to the pre-reaction mixtures. After another 10 min incubation, the reaction was stopped by adding 400 μL of ice cold acetonitrile solution containing tolbutamide and labetalol served as internal standards. The incubation mixtures were centrifuged at 4000×g for 20 min, and then the supernatants were analyzed by LC-MS/MS after dilution. SigmaPlot was applied to plot % control activity versus the test compound concentrations, and for non-linear regression analysis of the data. IC50 values of test articles were determined using 3-parameter logistic equation.

CYP2C9 = target: T6, CYP2C9 (Homo sapiens, UniProt P11712); assay: CYPs inhibition in pooled human liver microsomes, probe substrate Diclofenac; type: in vitro ADME
T6 construct: 0.2 mg/mL human liver microsomes was pre-incubated in 180 μL reaction mixture; from tissue; host or cells: pooled human liver microsomes
Procedure: as §2

CYP2C19 = target: T7, CYP2C19 (Homo sapiens, UniProt P33261); assay: CYPs inhibition in pooled human liver microsomes, probe substrate S-mephenytoin; type: in vitro ADME
T7 construct: 0.2 mg/mL human liver microsomes was pre-incubated in 180 μL reaction mixture; from tissue; host or cells: pooled human liver microsomes
Procedure: as §2

CYP2D6 = target: T8, CYP2D6 (Homo sapiens, UniProt P10635); assay: CYPs inhibition in pooled human liver microsomes, probe substrate Dextromethorphan; type: in vitro ADME
T8 construct: 0.2 mg/mL human liver microsomes was pre-incubated in 180 μL reaction mixture; from tissue; host or cells: pooled human liver microsomes
Procedure: as §2

CYP3A4 = target: T9, CYP3A4 (Homo sapiens, UniProt P08684); assay: CYPs inhibition in pooled human liver microsomes, probe substrate Midazolam; type: in vitro ADME
T9 construct: 0.2 mg/mL human liver microsomes was pre-incubated in 180 μL reaction mixture; from tissue; host or cells: pooled human liver microsomes
Procedure: as §2

[1] = Liver microsomes study, Phase I stability (HLM); type: in vitro ADME, human; conditions: pH 7.4; human liver microsomes 0.5 mg/mL, 1 μM test article; read-out: HLM Clint
Procedure, shortened: (§3)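 Rat or human liver microsomes were incubated with test article, and reactions started with an NADPH regenerating system. Samples at 0, 10, 30 and 90 minutes were quenched with cold acetonitrile and analyzed by LC/MS/MS. T½ and CLint came from the ln(% remaining) versus time slope, scaled by protein concentration.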

[2] = Liver microsomes study, Phase I stability (RLM); type: in vitro ADME, rat; conditions: pH 7.4; rat liver microsomes 0.5 mg/mL, 1 μM test article; read-out: RLM Clint
Procedure, shortened: as §3

[3] = IC50 JAK1 (5 nM) (1 m MATP), JAK1 5 nM, 1 mM ATP
[4] = IC50 JAK2 ([…]) (1 mM ATP), 1 mM ATP
[5] = IC50 TYK2 ([…]) (1 mM ATP), TYK2 […], 1 mM ATP
[6] = IC50 JAK1 (10 nM) (Km ATP), JAK1 10 nM, Km ATP
[7] = IC50 JAK2 ([…]) (Km ATP), Km ATP

T1 sequence (P23458 whole entry): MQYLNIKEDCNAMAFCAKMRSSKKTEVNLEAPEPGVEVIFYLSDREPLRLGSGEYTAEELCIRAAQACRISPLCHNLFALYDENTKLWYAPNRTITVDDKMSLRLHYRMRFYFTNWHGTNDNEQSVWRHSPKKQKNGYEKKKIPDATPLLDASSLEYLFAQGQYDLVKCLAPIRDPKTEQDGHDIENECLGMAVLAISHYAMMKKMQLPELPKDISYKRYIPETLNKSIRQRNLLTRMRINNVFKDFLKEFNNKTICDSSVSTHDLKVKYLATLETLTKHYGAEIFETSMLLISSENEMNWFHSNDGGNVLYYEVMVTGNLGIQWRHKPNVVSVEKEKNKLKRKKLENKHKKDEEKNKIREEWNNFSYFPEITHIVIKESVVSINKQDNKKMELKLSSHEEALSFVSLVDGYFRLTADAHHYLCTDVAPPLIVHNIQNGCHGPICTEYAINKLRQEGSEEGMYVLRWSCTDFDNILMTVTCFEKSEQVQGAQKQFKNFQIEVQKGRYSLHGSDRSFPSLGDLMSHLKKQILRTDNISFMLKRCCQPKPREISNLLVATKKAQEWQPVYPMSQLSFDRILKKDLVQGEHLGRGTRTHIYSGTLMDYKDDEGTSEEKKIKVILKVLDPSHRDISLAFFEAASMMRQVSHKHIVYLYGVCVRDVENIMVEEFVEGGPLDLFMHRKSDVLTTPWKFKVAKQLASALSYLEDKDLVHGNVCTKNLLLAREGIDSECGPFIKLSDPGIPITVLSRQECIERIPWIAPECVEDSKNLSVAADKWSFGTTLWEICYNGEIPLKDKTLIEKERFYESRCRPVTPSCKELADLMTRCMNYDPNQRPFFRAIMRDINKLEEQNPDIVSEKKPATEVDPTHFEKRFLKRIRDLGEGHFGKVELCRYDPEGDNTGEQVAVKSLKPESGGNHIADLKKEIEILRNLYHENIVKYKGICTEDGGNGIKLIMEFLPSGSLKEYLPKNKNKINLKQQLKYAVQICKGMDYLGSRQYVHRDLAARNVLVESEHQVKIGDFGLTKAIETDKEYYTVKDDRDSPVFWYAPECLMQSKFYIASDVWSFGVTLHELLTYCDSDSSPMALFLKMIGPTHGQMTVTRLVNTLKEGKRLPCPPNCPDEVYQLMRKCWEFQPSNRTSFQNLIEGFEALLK
T9 sequence (P08684 whole entry): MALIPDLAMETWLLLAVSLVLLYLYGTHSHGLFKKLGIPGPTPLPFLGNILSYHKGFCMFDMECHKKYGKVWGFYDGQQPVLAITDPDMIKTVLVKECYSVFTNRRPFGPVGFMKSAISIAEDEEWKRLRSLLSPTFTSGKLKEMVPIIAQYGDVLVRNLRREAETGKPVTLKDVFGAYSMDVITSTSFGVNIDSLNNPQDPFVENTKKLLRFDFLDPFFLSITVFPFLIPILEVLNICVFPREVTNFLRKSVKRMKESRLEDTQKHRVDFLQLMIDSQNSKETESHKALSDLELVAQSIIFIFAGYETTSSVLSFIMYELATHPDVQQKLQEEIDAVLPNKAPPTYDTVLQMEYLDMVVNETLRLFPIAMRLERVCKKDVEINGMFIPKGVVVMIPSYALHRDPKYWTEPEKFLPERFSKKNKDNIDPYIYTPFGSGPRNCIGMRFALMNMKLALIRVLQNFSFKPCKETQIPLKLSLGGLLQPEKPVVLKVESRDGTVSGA
T4 sequence (P29597 whole entry): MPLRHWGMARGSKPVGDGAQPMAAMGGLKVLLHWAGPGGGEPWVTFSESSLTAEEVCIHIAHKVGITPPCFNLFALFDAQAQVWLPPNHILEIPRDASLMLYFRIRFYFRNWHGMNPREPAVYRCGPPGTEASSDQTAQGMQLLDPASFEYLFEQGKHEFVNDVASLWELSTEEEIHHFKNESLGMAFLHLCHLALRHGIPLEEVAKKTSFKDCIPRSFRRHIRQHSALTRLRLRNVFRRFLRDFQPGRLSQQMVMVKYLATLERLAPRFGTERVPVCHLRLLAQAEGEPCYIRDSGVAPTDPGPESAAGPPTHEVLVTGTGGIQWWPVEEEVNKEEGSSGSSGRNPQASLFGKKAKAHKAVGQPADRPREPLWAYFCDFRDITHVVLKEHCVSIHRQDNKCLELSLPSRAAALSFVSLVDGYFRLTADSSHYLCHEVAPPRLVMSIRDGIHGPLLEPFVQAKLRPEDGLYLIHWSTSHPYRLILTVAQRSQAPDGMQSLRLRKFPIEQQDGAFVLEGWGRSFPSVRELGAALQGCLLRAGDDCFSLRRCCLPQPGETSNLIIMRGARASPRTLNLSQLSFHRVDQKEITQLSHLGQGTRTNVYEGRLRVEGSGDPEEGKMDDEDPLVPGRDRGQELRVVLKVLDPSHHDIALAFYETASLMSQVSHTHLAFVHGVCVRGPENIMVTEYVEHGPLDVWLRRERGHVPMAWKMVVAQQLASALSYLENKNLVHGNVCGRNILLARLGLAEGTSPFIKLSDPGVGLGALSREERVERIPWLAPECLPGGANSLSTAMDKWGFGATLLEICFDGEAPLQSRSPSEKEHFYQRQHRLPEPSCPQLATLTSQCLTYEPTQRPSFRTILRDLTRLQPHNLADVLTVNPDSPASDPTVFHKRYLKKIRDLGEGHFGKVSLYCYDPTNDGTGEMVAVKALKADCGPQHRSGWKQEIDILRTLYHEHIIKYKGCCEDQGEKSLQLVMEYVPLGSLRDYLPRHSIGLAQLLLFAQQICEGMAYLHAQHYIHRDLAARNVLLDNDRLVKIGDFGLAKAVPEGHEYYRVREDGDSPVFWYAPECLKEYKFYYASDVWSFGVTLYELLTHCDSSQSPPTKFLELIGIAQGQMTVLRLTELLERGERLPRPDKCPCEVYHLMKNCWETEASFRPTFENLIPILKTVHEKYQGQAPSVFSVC
T7 sequence (P33261 whole entry): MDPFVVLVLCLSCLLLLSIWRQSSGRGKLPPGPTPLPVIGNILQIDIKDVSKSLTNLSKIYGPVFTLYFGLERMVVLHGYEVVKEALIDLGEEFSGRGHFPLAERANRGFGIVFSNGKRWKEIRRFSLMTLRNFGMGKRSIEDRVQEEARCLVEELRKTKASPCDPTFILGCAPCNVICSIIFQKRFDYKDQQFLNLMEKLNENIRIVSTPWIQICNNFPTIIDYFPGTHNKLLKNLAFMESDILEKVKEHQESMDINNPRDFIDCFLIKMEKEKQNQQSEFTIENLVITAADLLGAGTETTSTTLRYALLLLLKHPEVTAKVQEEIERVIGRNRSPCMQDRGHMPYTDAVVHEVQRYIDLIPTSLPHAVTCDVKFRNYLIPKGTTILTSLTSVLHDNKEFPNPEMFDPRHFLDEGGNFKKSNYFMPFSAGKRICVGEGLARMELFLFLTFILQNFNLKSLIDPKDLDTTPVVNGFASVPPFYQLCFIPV
T2 sequence (O60674 whole entry): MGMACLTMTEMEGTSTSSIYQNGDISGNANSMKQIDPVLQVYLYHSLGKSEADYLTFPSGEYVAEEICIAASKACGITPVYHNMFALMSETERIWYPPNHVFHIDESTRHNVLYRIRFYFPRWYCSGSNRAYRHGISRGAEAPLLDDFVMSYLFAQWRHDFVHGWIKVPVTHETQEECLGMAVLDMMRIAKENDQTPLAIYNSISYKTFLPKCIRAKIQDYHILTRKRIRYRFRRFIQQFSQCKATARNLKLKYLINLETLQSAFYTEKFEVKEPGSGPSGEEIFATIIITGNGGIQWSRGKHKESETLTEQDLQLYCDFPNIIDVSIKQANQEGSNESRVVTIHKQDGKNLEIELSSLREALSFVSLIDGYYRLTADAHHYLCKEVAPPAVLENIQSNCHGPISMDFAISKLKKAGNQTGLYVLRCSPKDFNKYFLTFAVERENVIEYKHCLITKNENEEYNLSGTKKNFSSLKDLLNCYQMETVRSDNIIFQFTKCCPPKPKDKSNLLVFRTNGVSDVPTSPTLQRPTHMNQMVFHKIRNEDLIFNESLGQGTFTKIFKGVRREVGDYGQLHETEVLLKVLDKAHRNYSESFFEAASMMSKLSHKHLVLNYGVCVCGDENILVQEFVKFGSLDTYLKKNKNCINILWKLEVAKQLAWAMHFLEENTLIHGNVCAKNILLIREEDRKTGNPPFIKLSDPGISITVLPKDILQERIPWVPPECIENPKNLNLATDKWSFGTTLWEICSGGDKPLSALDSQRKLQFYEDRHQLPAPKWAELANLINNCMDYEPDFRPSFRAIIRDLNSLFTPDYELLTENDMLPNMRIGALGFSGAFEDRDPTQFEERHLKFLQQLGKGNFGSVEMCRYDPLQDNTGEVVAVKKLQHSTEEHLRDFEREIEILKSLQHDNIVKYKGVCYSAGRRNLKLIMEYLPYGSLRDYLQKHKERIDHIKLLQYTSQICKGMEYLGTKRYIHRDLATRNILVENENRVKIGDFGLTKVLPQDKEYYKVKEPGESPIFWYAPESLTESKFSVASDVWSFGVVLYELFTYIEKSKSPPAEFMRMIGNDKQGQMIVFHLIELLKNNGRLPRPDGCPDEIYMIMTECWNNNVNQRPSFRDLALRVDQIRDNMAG
T6 sequence (P11712 whole entry): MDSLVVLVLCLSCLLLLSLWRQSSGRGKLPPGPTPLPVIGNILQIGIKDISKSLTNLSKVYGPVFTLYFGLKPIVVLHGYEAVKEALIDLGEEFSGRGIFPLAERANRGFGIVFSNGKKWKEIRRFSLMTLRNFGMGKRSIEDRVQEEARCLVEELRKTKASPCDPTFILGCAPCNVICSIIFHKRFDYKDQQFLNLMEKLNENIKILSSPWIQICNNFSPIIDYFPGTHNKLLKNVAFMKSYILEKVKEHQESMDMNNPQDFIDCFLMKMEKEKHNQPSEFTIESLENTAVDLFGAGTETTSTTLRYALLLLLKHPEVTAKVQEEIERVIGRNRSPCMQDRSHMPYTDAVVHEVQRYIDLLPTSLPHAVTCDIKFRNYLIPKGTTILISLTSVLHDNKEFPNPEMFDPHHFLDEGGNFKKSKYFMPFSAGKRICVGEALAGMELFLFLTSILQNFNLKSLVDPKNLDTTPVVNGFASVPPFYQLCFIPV
T3 sequence (O60674 whole entry V617F): as the sequence (O60674 whole entry) above, with V617F counted along it

| IC50 (JAK1; [3]) [nM] | IC50 (JAK2; [4]) [nM] | IC50 (JAK2V617F) [nM] | IC50 (TYK2; [5]) [nM] | IC50 (CYP1A2) [nM] | IC50 (CYP2C9) [nM] | IC50 (CYP2C19) [nM] | IC50 (CYP2D6) [nM] | IC50 (CYP3A4) [nM] | microsomal CLint at 1 μM [1] [µL/min/mg] | IC50 (JAK1; [6]) [nM] | IC50 (JAK2; [7]) [nM] | IC50 (TYK2; IC50 TYK2 (10 nM) (Km ATP), TYK2 10 nM, Km ATP) [nM] | microsomal CLint at 1 μM [2] [µL/min/mg] | SMILES |
| --- | --- | --- | --- | --- | --- | --- | --- | --- | --- | --- | --- | --- | --- | --- |
| 91.2 | 110 | 186 | 218 | > 50000 | > 50000 | > 50000 | > 50000 | > 50000 | 8.92 |  |  |  |  | C[C@@H](C#N)NC(=O)c1ccc(-c2nc(Nc3cnn(C4CCN(C)CC4)c3)ncc2F)cc1 [Example 50, (S)—N-(1-cyanoethyl)-4-(5-fluoro-2-((1-(1-methylpiperidin-4-yl)-1H-pyrazol-4-yl)amino)pyrimidin-4-yl)benzamide] |
|  | 1.34 | 37.8 |  | > 50000 | > 50000 | > 50000 | > 50000 | > 50000 | 14.9 | 1.79 | 0.42 | 0.84 | 15 | Cc1cnc(Nc2cnn(C3CCN(CC#N)CC3)c2)nc1-c1ccc(C(=O)NCC#N)cc1 [Example 1, N-(Cyanomethyl)-4-(2-((1-(1-(cyanomethyl)piperidin-4-yl)-1H-pyrazol-4-yl)amino)-5-methylpyrimidin-4-yl)benzamide] |
| 3.83 | 1.02 | 31.7 | 10.6 | > 50000 | > 50000 | > 50000 | > 50000 | > 50000 | 4.64 |  |  |  | 34.5 | Cc1cnc(Nc2cnn(C3CCN(C)CC3)c2)nc1-c1ccc(C(=O)N[C@@H](C)C#N)cc1 [Example 48, (S)—N-(1-cyanoethyl)-4-(5-methyl-2-((1-(1-methylpiperidin-4-yl)-1H-pyrazol-4-yl)amino)pyrimidin-4-yl)benzamide] |
| 1.2 | 4.4 |  | 2.64 | > 50000 | 38100 | > 50000 | 37800 | > 50000 | 7.06 |  |  |  | 14.4 | CC[C@@H](C#N)NC(=O)c1ccc(-c2nc(Nc3cnn(CCO)c3)ncc2Cl)cc1 [Example 167, (S)-4-(5-Chloro-2-((1-(2-hydroxyethyl)-1H-pyrazol-4-yl)amino)pyrimidin-4-yl)-N-(1-cyanopropyl)benzamide] |
| 4.33 | 48.7 |  | 48.2 | 44800 | > 50000 | > 50000 | 19000 | 21500 |  |  |  |  |  | CC[C@@H](C#N)NC(=O)c1ccc(-c2nc(Nc3cnn(CC#N)c3)ncc2C)cc1 [Example 55, (S)-4-(2-((1-(cyanomethyl)-1H-pyrazol-4-yl)amino)-5-methylpyrimidin-4-yl)-N-(1-cyanopropyl)benzamide] |
| 4.61 | 1.73 |  | 17.4 | > 50000 | > 50000 | > 50000 | 19400 | > 50000 |  |  |  |  |  | COC[C@@H](C#N)NC(=O)c1ccc(-c2nc(Nc3cnn(C4CCN(C)CC4)c3)ncc2C)cc1 [Example 213, (R)—N-(1-Cyano-2-methoxyethyl)-4-(5-methyl-2-((1-(1-methylpiperidin-4-yl)-1H-pyrazol-4-yl)amino)pyrimidin-4-yl)benzamide] |
| 3.61 | 26.4 | 61.1 | 5.42 | > 50000 | > 50000 | > 50000 | 30700 | > 50000 |  |  |  |  |  | CC[C@@H](C#N)NC(=O)c1ccc(-c2nc(Nc3cnn(C(C)C(F)(F)F)c3)ncc2C)cc1 (stereo partly drawn) [Example 195, N—((S)-1-cyanopropyl)-4-(5-methyl-2-((1-(1,1,1-trifluoropropan-2-yl)-1H-pyrazol-4-yl)amino)pyrimidin-4-yl)benzamide] |
| 1.93 | 24.6 |  | 1.74 | > 50000 | > 50000 | > 50000 | > 50000 | > 50000 | 5.05 |  |  |  | 14.8 | CC[C@@H](C#N)NC(=O)c1ccc(-c2nc(Nc3cnn(CCO)c3)ncc2C)cc1 [Example 172, (S)—N-(1-cyanopropyl)-4-(2-((1-(2-hydroxyethyl)-1H-pyrazol-4-yl)amino)-5-methylpyrimidin-4-yl)benzamide] |
| 6.44 | < 0.25 | 2.89 | 20.4 | 24500 | 5930 | 10400 | 1760 | 31500 |  |  |  |  |  | Cc1cnc(Nc2cnn(C3CCC(O)CC3)c2)nc1-c1ccc(C(=O)NCC#N)cc1 (centres unmarked) [Example 132, N-(Cyanomethyl)-4-(2-((1-(4-hydroxycyclohexyl)-1H-pyrazol-4-yl)amino)-5-methylpyrimidin-4-yl)benzamide] |
| 1.58 | 15.2 |  | 3.51 | 10700 | 6040 | 7630 | 2300 | 10900 |  |  |  |  |  | CC[C@@H](C#N)NC(=O)c1ccc(-c2nc(Nc3cn[nH]c3)ncc2Cl)cc1 [Example 185, (S)-4-(2-((1H-Pyrazol-4-yl)amino)-5-chloropyrimidin-4-yl)-N-(1-cyanopropyl)benzamide] |
|  |  |  |  | > 50000 | > 50000 | > 50000 | > 50000 | > 50000 | 33.7 | 1.92 | 0.65 |  | 49.2 | Cc1cnc(Nc2cnn(C3CCN(CC(F)F)CC3)c2)nc1-c1ccc(C(=O)NCC#N)cc1 [Example 19, N-(Cyanomethyl)-4-(2-((1-(1-(2,2-difluoroethyl)piperidin-4-yl)-1H-pyrazol-4-yl)amino)-5-methylpyrimidin-4-yl)benzamide] |
| 5.7 | 41 |  | 28 | > 50000 | > 50000 | > 50000 | > 50000 | > 50000 |  |  |  |  |  | Cc1cnc(Nc2cnn(CCO)c2)nc1-c1ccc(C(=O)N[C@H](C#N)C2CC2)cc1 [Example 215, (S)—N-(cyano(cyclopropyl)methyl)-4-(2-((1-(2-hydroxyethyl)-1H-pyrazol-4-yl)amino)-5-methylpyrimidin-4-yl)benzamide] |
|  | 0.3 | 13.7 |  | > 50000 | > 50000 | > 50000 | > 50000 | > 50000 | < 9.6 |  | 0.25 |  | < 9.6 | CC(=O)N1CCC(n2cc(Nc3ncc(C)c(-c4ccc(C(=O)NCC#N)cc4)n3)cn2)CC1 [Example 20, 4-(2-((1-(1-Acetylpiperidin-4-yl)-1H-pyrazol-4-yl)amino)-5-methylpyrimidin-4-yl)-N-(cyanomethyl)benzamide] |
